This note sets out measurements from patent publication US4909257A, “Method for attaining in vivo tissue-specific contrast by nuclear magnetic resonance imaging” (priority 1989, dated 1990).

Series [1] has as its system normal BALB/C mice. Nature of the series: Toxicity (acute lethality) after i.v. tail vein injection in mice. It is filed as in vivo. To be noted: 0.2 mL, five BALB/C mice per dose group, 7 days. The method, then:
Solutions were prepared to evaluate the toxicity of the chelators and ferric complexes of the chelators.
A 1.2 M stock ferric solution was prepared by dissolving 32 g of FeCl3 * 6 H2 O in 100 mL of 0.1 N HCl. It was standardized by EDTA titration using Variamine Blue B indicator.
A solution or suspension of 10 mmoles of each ligand in 20 mL of water was 70-80% neutralized by reaction with NaOH. The resulting solution (pH~9) was added dropwise to a solution of 10.1 mmoles of FeCl3 in 10 mL of water. The reaction mixture was adjusted to pH 7.0 with solid NaHCO3 and stirred at 60°-80° C. for two hours. It then was ccentrifuged, and the supernatant was filtered through a 0.22 micron filter. […] Th filtrate was concentrated on a rotary evaporator, the pH adjusted to 7.0, and the volume adjusted to 20 mL.
Tiron was obtained as the sodium salt. An aqueous 0.5 M solution was treated with a 2% excess of FeCl3, and the reaction mixture was worked up as above.
A suspension of 3.6 g (10 mmoles) of EHPG in 15 mL of water was reacted with 17 mL of 2 N NaOH. The resulting dark yellow-orange solution was added dropwise to a solution of 2.7 g […] of FeCl3 * 6 H2 O in 10 mL of water. The reaction mixture was warmed to 60°-80° C. and held at that temperature for 2 hours. The thick orange-red suspension was diluted to 120 mL and heated to 90°-100° C. The hot suspension was filtered through filter aid, and the filtrate was allowed to cool to room temperature.
Rather than crystallizing the product, the pH of the reaction mixture was adjusted to 7.0 with NaHCO3 and filtered. The filtrate was used for subsequent experiments after appropriate volume adjustments and Fe determination.
For each compound at each dose, five normal BALB/C mice weighing 19-22 g were treated with test solution by injection into the tail vein. The injection volumes were approximately 0.2 mL. The behavior and condition of the mice were monitored for 1 week.

Series [2] can be described thus: Magnetic resonance imaging contrast enhancement (2 Tesla, coronal spin echo). It is filed as in vivo, BALB/C mice. To be noted: for MRI: increase in signal intensity in the gall bladder: in contrast to Fe-EHPG and Fe-HBED; for MRI: urinary bladder concentration: mouse, in vivo.
Method: Imaging tests were performed on a General Electric CSI-II 2 Tesla (85.6 MHz proton resonant frequency) chemical shift imaging-spectrometer (GE Medical Systems,Inc., Fremont, CA). A standard 2-Dimensional Fourier Transform (2DFT) spin warp sequence with 2 mm slice thickness and 128 phase-encodingcycles by 512 complex (quadrature detected) data points was used. These were transposed to 512×512 image output pixels (256 level gray scale) over a 140×150 field of view. Coronal spin echo images were obtained using a TR of 300 msec, a TE of 14 msec, and averaging four acquisitions per cycle. The RF coil used was a homebuilt distributed capacitance (low-pass birdcage) design coupled to balanced-matched RF input circuitry.
Experiments were typically run simultaneously on two 20 g BALB/C mice. These were anesthetized i.p. with ketamine, and a 27 G catheter was inserted into the tail vein and connected to a 0.5 cc syringe containing contrast agent. The mice were placed side-by-side and supine in a holder within the RF coil, and a precontrast image was obtained. Contrast agent then was administered, and then post contrast images were obtained in registration at designated time intervals.
Series [3] in a line: Dose needed for NMR contrast enhancement. It is filed as in vivo. To be noted: doses as low as.
Series [4] can be described thus: Organ distribution and clearance of 59Fe-labeled complexes. It is filed as in vivo, BALB/C mice. The method, then:
^59 Fe was obtained as 0.06 M FeCl3 in 0.5 N HCl; the specific activity was approximately 20 mCi/mmole (1.2 mCi/mL). Labeled commplexes were preared by treating in a Teflon vial 10 uL of ^59 FeCl3 with 25 uL of 2.0×10^-2 M solution of ligand, followed by 0.25 mL of 0.36 M, pH 7.3 Na HEPES buffer and 0.74 mL of water. The reaction mixture was held at 80° C. for 2 hours and then treated with 0.2 mL of 0.12 M solution of Fe-ligand complex. The resulting solution was filtered through a 0.22 u filter. A 0.2 mL dose contained 0.004 mmole of Fe-chelate with 2 uCi of ^59 Fe. ^59 Fe acetate was prepared as above, but without addition of unlabeled carrier Fe acetate.
For each complex shown in FIG. 1, a group of five BALB/C mice were treated as above with 0.2 mmole/Kg of labeled Fe-complex containing approximately 2 uCi of ^59 Fe. The animals were counted immediately after injection and at 2 hours, 1, 2, 4, and 7 days. Whole body counts were obtained using a Nuclear Chicago Tobor chamber gamma counter. Raw counts were background-subtracted and back-decayed to t0, the time of injection. An ^59 Fe standard and background were counted at each time point.
After the appropriate time period, the animals were sacrificed and dissected. Organ weights were measured, and the organs were counted in a gamma counter. Due to its small size, the gall bladder was combined with the small intestine for weighing and counting. An ^59 Fe standard was also counted at each time point. Raw counts were background-subtracted and back-decayed to t0, the time of injection. Activity was computed as a fraction of injected dose per gram of tissue.

`O=C(O)CN(CC(=O)O)[C@@H]1CCCC[C@H]1N(CC(=O)O)CC(=O)O` (relative stereo) [CDTA, trans-1,2-cyclohexanediaminotetraacetic acid]: in series [1], the “LD-0 (maximum dose at which no mortality was observed for seven days post injection)” value was 0.05 mmol/kg and the “LD-100 (minimum dose for which 100% mortality was observed for seven days post injection)” value worked out at 0.5 mmol/kg.
In the case of `CC(=O)N(O)CCCCCNC(=O)CCC(=O)N(O)CCCCCNC(=O)CCC(=O)N(O)CCCCCN` [DF, Desferrioxamine B], in series [1], the “LD-0 (maximum dose at which no mortality was observed for seven days post injection)” value is 0.5 mmol/kg and the “LD-100 (minimum dose for which 100% mortality was observed for seven days post injection)” value turned out to be 1 mmol/kg.
As for `CC(=O)N([O-])CCCCCNC(=O)CCC(=O)N([O-])CCCCCNC(=O)CCC(=O)N([O-])CCCCCN.[Fe+3]` [Fe--DF], in series [1], the “LD-0 (maximum dose at which no mortality was observed for seven days post injection)” value was determined as 0.5 mmol/kg and the “LD-100 (minimum dose for which 100% mortality was observed for seven days post injection)” value was 2 mmol/kg. In addition, in series [2], the “MRI: increase in signal intensity in the gall bladder” value is listed as “essentially none in the gall bladder” and the “MRI: urinary bladder concentration” value is listed as “concentrated in the urinary bladder”.
For the molecule `O=C([O-])C(NCCNC(C(=O)[O-])c1ccccc1[O-])c1ccccc1[O-].[Fe+3]` (stereo not drawn) [Fe--EHPG], the “LD-0 (maximum dose at which no mortality was observed for seven days post injection)” value in series [1] came to 0.9 mmol/kg. Besides, the “lowest dose achieving NMR contrast enhancement” value in series [3] is given as 1 mg contrast agent per kilogram weight of the animal. Further, in series [4] (0.2 mmole/Kg labeled Fe-complex, fraction of injected dose per gram of tissue, FIGS. 2 and 3), the “liver level of 59Fe over time” value was “initially high and then decreased”. Also, in series [4] (gut tissue and contents, final time of 6 hours), the “large intestine levels at 6 hours” value is reported as “exceeded all of the other values”. Moreover, the “large intestine levels, up to the 2 hour time point” value in series [4] (gut tissue and contents, up to 2 hours) was “started and remained lower than the liver or small intestine values”. Besides, in series [4] (small intestine combined with gall bladder, out to 6 hours), the “small intestine values over time” value was “initially low, rose to a maximum at about 1-2 hours, and then decreased out to 6 hours”. Besides, in series [4] (small intestine combined with gall bladder, printed as about), the “time of maximum small intestine value” lay in the range of 1 to 2 h. Moreover, in series [2] (50 minutes post-contrast), the “MRI: gall bladder contrast at 50 minutes” value is on record as “gall bladder contrast remains markedly high” and the “MRI: liver intensity at 50 minutes” value is given as “liver intensity has decreased”. The “MRI: gall bladder enhancement, later” value in series [2] (gradual, post-contrast) is recorded as “gradually becomes brighter than the surrounding liver”. For the same molecule, the “MRI: urinary bladder concentration” value in series [2] is given as “concentrated in the urinary bladder”. Moreover, the “MRI: liver enhancement” value in series [2] (post-contrast, initial) is reported as “first concentrate in the liver”. Moreover, the “MRI: gall bladder enhancement, initial” value in series [2] (while agent first concentrates in the liver) was “gall bladder remains unenhanced”.
Regarding `O=C([O-])CN(CCO)CCN(CC(=O)[O-])CC(=O)[O-].[Fe+3]` [Fe--HEDTA], the “LD-100 (minimum dose for which 100% mortality was observed for seven days post injection)” value in series [1] stood at 0.5 mmol/kg.
GD-DTPA [reference compound]: in series [2], the “MRI: increase in signal intensity in the gall bladder” value was “essentially none in the gall bladder” and the “MRI: urinary bladder concentration” value is listed as “concentrated in the urinary bladder”.
